Assay results: patent US9717719B2, “Treatment, prevention, and reversal of alcohol-induced liver disease” (Rhode Island Hospital, priority 2006, dated 2017)

Columns and labels:
[1] = test system: Long-Evans male rats fed a 37% ethanol liquid diet; assay: Lipid peroxidation in liver by HNE immunostaining; format: in vivo, rat; settings: chronic ethanol fed rats
Procedure: An isocaloric (sucrose substituted for ethanol) diet was administered to pair fed control animals. After three weeks, both groups of rats were injected with either PPAR-α, γ, or δ agonists or saline as a control. […] The […] were given IP injections twice a week. At 6 weeks, the animals underwent 2/3 partial hepatectomy. The removed liver was used for histology, measurement of lipid peroxidation, DNA damage and insulin/IGF signaling as described below. Following ⅔ hepatectomy, the liver remnants were harvested 18, 24, 30 and 48 hours later to assess the regenerative response. To do this, animals were injected IP with BrdU 2 hours before harvest to measure its incorporation into hepatic nuclei as an index of DNA synthesis.
Paraffin sections (8 μm thick) were immunostained with monoclonal antibodies to 8-hydroxy-deoxyguanosine (8-OHdG) (Oxis Research) or 4-hydroxynonenol (HNE) (Chemicon International, Temecula, Calif.), to detect DNA damage and lipid peroxidation, respectively. Prior to immunostaining, the deparaffinized, re-hydrated sections were treated with 0.1 mg/ml saponin in phosphate buffered saline (10 mM sodium phosphate, 0.9% NaCl, pH 7.4; PBS) for 20 minutes at room temperature, followed by 3% hydrogen peroxide in methanol for 10 minutes to quench endogenous peroxidase activity, and then a 30-minute incubation in SuperBlock-TBS (Pierce Chemical Co., Rockford, Ill.) to block non-specific binding sites. The tissue sections were then incubated overnight at 4° C. with 0.5-1 μg/ml of primary antibody. […] The tissue sections were counterstained with hematoxylin, preserved under coverglass, and examined by light microscopy.

[2] = test system: insulin, IGF-I, IGF-II, their receptors, IRS-1, IRS-2, IRS-4 mRNA in liver; assay: qRT-PCR of hepatic insulin and IGF polypeptides, their receptors, and IRS molecules; format: in vivo, rat; settings: relative to vehicle; for IGF-II mRNA: chronic ethanol feeding; for IGF-I mRNA: control rats
Source text: Chow fed control rats were also studied. Rats were monitored daily to ensure equivalent food consumption and maintenance of body weight. […] At the conclusion of the experiment, rats were anesthetized with vaporized isofluorane (SurgiVet, Inc. Waukesha, Wis.), and liver and blood were harvested for analysis. Liver tissue samples were immersion fixed in Histochoice (Amresco Corp., Solon, Ohio) and embedded in paraffin. Adjacent histological sections were stained with Hematoxylin and Eosin or Gomori's Trichrome and examined under code. In addition, liver tissue samples were snap-frozen in a dry ice methanol bath and then stored at −80° C. for later mRNA and protein studies. Throughout the experiment, rats were housed under humane conditions and kept on a 12-hour light/dark cycle with free access to food. All experiments were performed in accordance with protocols that conform to guidelines established by the National Institutes of Health and were approved by Institutional Animal Care and Use Committee at the Lifespan-Rhode Island Hospital.
Total RNA was extracted from liver tissue using TRIzol® reagent (Invitrogen, Carlsbad, Calif.) according to the manufacturer's protocol. RNA concentrations and purity were determined from the absorbances measured at 260 nm and 280 nm. RNA (2 μg) was reverse transcribed using the AMV First Strand cDNA synthesis kit (Roche Diagnostics Corporation, Indianapolis, Ind.) and random oligodeoxynucleotide primers. Quantitative reverse transcriptase polymerase chain reaction (qRT-PCR) assays were used to measure steady-state levels of specific mRNA transcripts. PCR amplifications were performed in 20 μl reactions containing cDNA generated from 2.5 ng of original RNA template, 300 nM each of gene specific forward and reverse primer (Table 2), and 10 μl of 2× QuantiTect SYBR Green PCR Mix (Qiagen Inc, Valencia, Calif.). The amplified signals were detected continuously with the Mastercycler ep realplex instrument and software (Eppendorf AG, Hamburg, Germany). The amplification protocol used was as follows: initial 15-minutes denaturation and enzyme activation at 95° C., 45 cycles of 95° C.×15 sec, 55°-60° C.×30 sec, and 72° C.×30 sec. Annealing temperatures were optimized using the temperature gradient program provided with the Mastercycler ep realplex software.
Complementary (c) DNAs were cloned into PCR-II vectors (Invitrogen, Carlsbad, Calif.). […] Serial dilutions of recombinant plasmid DNA containing target sequences were used as standards in PCR reactions, and regression lines generated from the Ct values of the standards were used to calculate mRNA abundance. Relative mRNA expression was expressed as the ng ratio of specific mRNA to ribosomal (r) 18S measured in the same samples because 18S is highly abundant and the levels are not modulated with disease state. Statistical comparisons were made using the calculated mRNA/18S ratios.

SMILES	hepatic lipid peroxidation (HNE immunostaining) [1]	insulin gene expression ([2]; ethanol-exposed group)	IGF-II mRNA [2]	insulin gene expression ([2]; control group)	IGF-I mRNA [2]	IRS-2 mRNA ([2]; ethanol-exposed rats)	IRS-2 mRNA ([2]; control group)	insulin receptor mRNA ([2]; controls)	IRS-4 mRNA ([2]; ethanol-exposed group)	insulin receptor mRNA ([2]; ethanol-fed rat livers)	IRS-1 mRNA ([2]; ethanol-fed rats)
CC(C)(Sc1ccc(CCN(CCCCC2CCCCC2)C(=O)NC2CCCCC2)cc1)C(=O)O [PPAR-α, GW7647]	substantially improved	reduced	–	–	–	–	–	–	–	–	–
CC(C)C[C@H](NC(=O)OCC1c2ccccc2-c2ccccc21)C(=O)O [PPAR-γ, F-L-Leu]	substantially improved	–	significantly reduced	significantly increased	significantly increased	significantly reduced	–	–	–	–	–
CCCc1c(OCCCOc2ccc(OCC(=O)O)cc2)ccc(C(C)=O)c1O [PPAR-δ, L-165,041]	substantially improved	reduced	significantly reduced	significantly increased	significantly increased	–	significantly increased	increased	significantly reduced	significantly reduced	significantly reduced
